What was measured:
[1] = Inhibition of N-type calcium channel alpha1B/alpha2delta-1/beta1b assessed as inhibition of KCl-induced calcium mobilization by FDSS
Liver microsomes [2] = assay: (§1) Metabolic stability in human liver microsomes assessed as compound remaining after 10 mins; type: ADME, Microsome; settings: microsomes, 10 min
Liver microsomes [3] = assay: (§2) Metabolic stability in rat liver microsomes assessed as compound remaining after 10 mins; type: ADME, Microsome; settings: microsomes, 10 min
Rattus norvegicus [4] = assay: Antiallodynic activity in Sprague-Dawley rat chronic constriction injury-induced neuropathic pain model assessed as attenuation of CCl-induced cold allodynia at 30 mg/kg, ip measured at 1 to 4 hrs; type: functional; settings: route intraperitoneal
[5] = Cmax in Sprague-Dawley rat at 10 mg/kg, po; type: ADME, organism-based; design: dose 10 mg/kg, route oral; settings: in vivo
[6] = Tmax in Sprague-Dawley rat at 10 mg/kg, po; type: ADME, organism-based; design: dose 10 mg/kg, route oral; settings: in vivo
Rattus norvegicus [7] = species on record: Rattus norvegicus; assay: Ex vivo inhibition of rat N-type calcium channel assessed as inhibition of KCl-stimulated CGRP release at 1 uM by ELISA in presence of conotoxin GVIA; type: functional
[8] = Inhibition of L-type calcium channel at 5 uM
[9] = as §1; type: ADME, Microsome; settings: liver microsomes, read-out: Stability
Plasma = assay: Plasma concentration in Sprague-Dawley rat at 30 mg/kg, ip; type: ADME, organism-based; design: dose 30 mg/kg, route intraperitoneal; settings: in vivo
[10] = Oral bioavailability in Sprague-Dawley rat at 10 mg/kg; type: ADME, organism-based; settings: in vivo
[11] = Inhibition of N-type calcium channel alpha1B/alpha2delta-1/beta1b by patch clamp analysis
Rattus norvegicus [12] = assay: Antiinflammatory activity in Sprague-Dawley rat assessed as reversal of carrageenan-induced thermal hypersensitivity at 30 mg/kg, ip administered 1 hr before carrageenan challenge relative to control; type: functional; settings: route intraperitoneal
[13] = as §2; type: ADME, Microsome; settings: liver microsomes, read-out: Stability
[14] = Clearance in Sprague-Dawley rat at 2 mg/kg, iv; type: ADME, organism-based; design: dose 2 mg/kg, route intravenous; settings: in vivo
[15] = Half life in Sprague-Dawley rat at 2 mg/kg, iv; type: ADME, organism-based; design: dose 2 mg/kg, route intravenous; settings: in vivo
Rattus norvegicus [16] = assay: Antiinflammatory activity in ip dosed Sprague-Dawley rat assessed as reversal of carrageenan-induced thermal hypersensitivity administered 1 hr before carrageenan challenge; type: functional, organism-based

## COc1ccccc1-n1nc(C2CCN(S(C)(=O)=O)CC2)cc1-c1ccc2c(ccn2C)c1
[1]
  IC50: 0.068 µM

## CNc1ccc(-c2cc(C3CCN(S(C)(=O)=O)CC3)nn2-c2ccccc2OC)cc1
[1]
  IC50: 0.2 µM

## COc1ccccc1-n1nc(C2CCN(S(=O)(=O)N(C)C)CC2)cc1-c1ccc(Cl)cc1
[1]
  IC50: 0.011 µM
Liver microsomes [2]
  Stability: Unstable
Liver microsomes [3]
  Stability: Unstable

## COc1ccccc1-n1nc(C2CCN(S(C)(=O)=O)CC2)cc1C1CCC(C)(C)CC1
[1]
  IC50: 0.14 µM

## OCCCc1cc(-c2ccc(Cl)cc2)n(-c2ccccc2)n1
[1]
  IC50: 1.2 µM

## COc1ccccc1-n1nc(C2CCN(S(C)(=O)=O)CC2)cc1-c1ccc(C#N)cc1
[1]
  IC50: 0.17 µM

## COc1ccccc1-n1nc(C2CCN(S(C)(=O)=O)CC2)cc1-c1ccc(C(C)(C)C)cc1
[1]
  IC50: 0.029 µM

## COc1ccccc1-n1nc(C2CCN(S(C)(=O)=O)CC2)cc1-c1ccc(Cl)c(C#N)c1
[1]
  IC50: 0.095 µM

## COc1ccccc1-n1nc(C2CCN(S(C)(=O)=O)CC2)cc1-c1ccc(Cl)s1
[1]
  IC50: 0.093 µM

## CS(=O)(=O)N1CCC(c2cc(-c3ccc(Cl)cc3)n(-c3ccccc3N)n2)CC1
[1]
  IC50: > 0.3 µM

## COc1ccccc1-n1nc(C2CCN(S(C)(=O)=O)CC2)cc1-c1ccc(OC(C)C)cc1
[1]
  IC50: 0.25 µM

## COc1ccccc1-n1nc(C2CCN(S(C)(=O)=O)CC2)cc1-c1ccc(Cl)cc1
Rattus norvegicus [4]
  inhibition in vivo at 30 mg/kg: 41%
[5]
  Cmax: 1.5 µM
[6]
  Tmax: 0.9 h
Rattus norvegicus [7]
  inhibition (INH): 91%
[8]
  inhibition: 52%
[1]
  IC50: 0.027 µM
[9]
  remaining at 10 min: 86%
Plasma
  concentration: 8.32 µM
[10]
  bioavailability: 42.5%
[11]
  IC50: 0.2 µM
Rattus norvegicus [12]
  Activity: 82%
[13]
  remaining at 10 min: 45%
[14]
  clearance: 1.56 L/h/kg
[15]
  half-life: 1.5 h
Rattus norvegicus [16]
  Activity: Dose-dependent effect

## COc1ccccc1-n1nc(C2CCN(S(C)(=O)=O)CC2)cc1C1=CCC(C)(C)CC1
[1]
  IC50: 0.049 µM

## COc1ccccc1-n1nc(C2CCN(S(C)(=O)=O)CC2)cc1-c1cc2ccccc2o1
[1]
  IC50: 0.4 µM

## COc1ccccc1-n1nc(C2CCN(S(C)(=O)=O)CC2)cc1-c1ccc(F)cc1
[1]
  IC50: 0.098 µM

## COc1ccccc1-n1nc(C2CCN(S(=O)(=O)C(C)C)CC2)cc1-c1ccc(Cl)cc1
[1]
  IC50: 0.018 µM
[9]
  remaining at 10 min: 100%
[11]
  IC50: 0.08 µM
[13]
  remaining at 10 min: 19%

## COc1ccccc1-n1nc(C2CCN(S(C)(=O)=O)CC2)cc1-c1ccc(Cl)cc1Cl
[1]
  IC50: 0.015 µM

## COc1ccccc1-n1nc(C2CCN(S(=O)(=O)CC(F)(F)F)CC2)cc1-c1ccc(Cl)cc1
[1]
  IC50: 0.026 µM
[9]
  remaining at 10 min: 100%
[13]
  remaining at 10 min: 33%

## CCS(=O)(=O)N1CCC(c2cc(-c3ccc(Cl)cc3)n(-c3ccccc3OC)n2)CC1
[1]
  IC50: 0.035 µM
Liver microsomes [2]
  Stability: Unstable
[13]
  remaining at 10 min: 22%

## COc1ccccc1-n1nc(C2CCN(S(C)(=O)=O)CC2)cc1-c1ccc(Cl)c(C(F)(F)F)c1
[1]
  IC50: 0.1 µM

## CC(C)Oc1ccccc1-n1nc(C2CCN(S(C)(=O)=O)CC2)cc1-c1ccc(Cl)cc1
[1]
  IC50: 0.005 µM
[9]
  remaining at 10 min: 18%
[13]
  remaining at 10 min: 5%

## COc1ccccc1-n1nc(CCCO)cc1-c1ccc(Cl)cc1
[1]
  IC50: 0.097 µM
[13]
  remaining at 10 min: 14%

## CN(C)c1ccccc1-n1nc(C2CCN(S(C)(=O)=O)CC2)cc1-c1ccc(Cl)cc1
[1]
  IC50: 0.013 µM

## COc1ccccc1-n1nc(C2CCN(C(C)=O)CC2)cc1-c1ccc(Cl)cc1
[1]
  IC50: 0.017 µM
[9]
  remaining at 10 min: 59%
[13]
  remaining at 10 min: 7%

## COc1ccccc1-n1nc(C2CCN(S(C)(=O)=O)CC2)cc1-c1ccc(N(C)C)cc1
[1]
  IC50: 0.061 µM

## COc1ccccc1-n1nc(C2CCN(S(=O)(=O)C(F)(F)F)CC2)cc1-c1ccc(Cl)cc1
[1]
  IC50: 0.016 µM
[9]
  remaining at 10 min: 98%
[13]
  remaining at 10 min: 100%

## COc1c(Cl)cccc1-n1nc(C2CCN(S(C)(=O)=O)CC2)cc1-c1ccc(Cl)cc1
[1]
  IC50: 0.17 µM
